The values below are quoted from earlier work in patent US4820521A, “Sustained absorption pharmaceutical composition” (priority 1983, dated 1989).

In one data set the test system is involuntary muscle. The note with it: versus theobromine and caffeine.
For data set [1] the following is noted: versus caffeine.
The conditions of data set [2]: human, in vivo.

In the case of `Cn1c(=O)c2[nH]cnc2n(C)c1=O` [Theophylline, 1,3-dimethylxanthine], the “relaxant of involuntary muscle (in words)” value in the data set with involuntary muscle is on record as “more powerful relaxant of involuntary muscle than either theobromine or caffeine”. For the setting “in vivo”, the “minimum effective plasma concentration” value was “about 5 mcg/ml”. For the setting “plasma”, the average therapeutic concentration entry is on record as “about 10 mcg/ml” and the “therapeutic range of concentration” value was 10 to 20 µg/mL. Besides, the “toxicity of levels above 20 mcg/ml” value (plasma levels above 20 mcg/ml) was “toxic”. For the same compound, the “effect of levels below 10 mcg/ml” value (plasma levels below 10 mcg/ml) is “ineffective”. The “diuretic action (in words)” value in data set [1] was “stronger than that of caffeine is of short duration”. The apparent biological half-life in data set [2] is given as 4-9 hours.
